# Calls of active or inactive are those of the source. The calls are words filed in the database; no cut-off is given here.
# What was measured:
# [1] = Antiproliferative activity against human SGC7901 cells after 72 hrs by MTT assay; format: functional, cell-based; settings: SGC-7901, 72 h
# [2] = Cytotoxicity against human L02 cells after 72 hrs by MTT assay; format: cell-based; settings: L02, 72 h
# [3] = Antiproliferative activity against human MDA-MB-435S cells after 72 hrs by MTT assay; format: functional, cell-based
# [4] = system: A549; test: Antiproliferative activity against human A549 cells after 72 hrs by MTT assay; format: functional, cell-based; settings: A549, 72 h
# [5] = Chemical stability of the compound at 2 to 4 mg at 25 to 300 degC by differential scanning […] analysis in the presence of nitrogen gas; format: physicochemical
# [6] = Drug degradation at 2 to 4 mg at 210 to 220 degC by thermogravimetric analysis in the presence of nitrogen gas; format: physicochemical; settings: for degraded: in vivo, read-out: Drug degradation
# [7] = Selectivity index, ratio of IC50 for human L02 cells to IC50 for human A549 cells; format: functional
# [8] = Antiproliferative activity against human PC3 cells after 72 hrs by MTT assay; format: functional, cell-based; settings: PC-3, 72 h
# [9] = system: A549; test: Antiproliferative activity against human A549 cells at 0.20 uM after 72 hrs by MTT assay in presence of 0.40 uM 3,4-dimethoxycinnamic acid; format: functional, cell-based
# [10] = system: A549; test: Antiproliferative activity against human A549 cells at 0.20 uM after 72 hrs by MTT assay; format: functional, cell-based
# [11] = system: A549; test: Induction of apoptosis in human A549 cells assessed as nuclei blebbing at 3 uM after 48 hrs by Hoechst 33258 staining based fluorescence microscopic analysis; format: functional, cell-based
# [12] = system: A549; test: Induction of apoptosis in human A549 cells assessed as early apoptotic cells at 30 uM after 48 hrs by Annexin V/propidium iodide staining based flow cytrometric analysis in presence of 5 mM NAC (reference value: 0.63%); format: functional
# [13] = system: A549; test: Induction of apoptosis in human A549 cells assessed as cell viability at 3 to 30 uM after 48 hrs by MTT assay in presence of 5 mM NAC; format: functional, cell-based
# [14] = system: A549; test: Induction of apoptosis in human A549 cells assessed as reactive oxygen species formation at 30 uM by DCFH-DA staining based FLIPR assay; format: functional, cell-based; settings: TDE = time-dependent effect
# [15] = system: A549; test: Induction of apoptosis in human A549 cells assessed as nuclei blebbing at 10 uM after 48 hrs by Hoechst 33258 staining based fluorescence microscopic analysis; format: functional, cell-based
# [16] = system: A549; test: Induction of apoptosis in human A549 cells after 48 hrs by Annexin V-FITC/propidium iodide staining based flow cytometric analysis; format: functional, cell-based
# [17] = system: A549; test: Induction of apoptosis in human A549 cells assessed as cell shrinkage at 30 uM after 48 hrs by Hoechst 33258 staining based fluorescence microscopic analysis; format: functional
# [18] = system: A549; test: Induction of apoptosis in human A549 cells assessed as cell shrinkage at 3 uM after 48 hrs by Hoechst 33258 staining based fluorescence microscopic analysis; format: functional
# [19] = system: A549; test: Induction of reactive oxygen species generation in human A549 cells at 30 uM measured for 20 hrs by DCFH-DA staining based fluorescence assay in presence of 3 uM DFO; format: functional, cell-based
# [20] = Induction of apoptosis in human L02 cells assessed as reactive oxygen species formation at 10 uM after 48 hrs by DCFH-DA staining based fluorescence microscopic analysis; format: cell-based; settings: l02, 48 h
# [21] = system: A549; test: Induction of apoptosis in human A549 cells assessed as nuclear rounding at 3 uM after 48 hrs by Hoechst 33258 staining based fluorescence microscopic analysis; format: functional, cell-based
# [22] = system: A549; test: Induction of apoptosis in human A549 cells assessed as nuclear rounding at 10 uM after 48 hrs by Hoechst 33258 staining based fluorescence microscopic analysis; format: functional, cell-based
# [23] = system: A549; test: Induction of apoptosis in human A549 cells assessed as nuclear rounding at 30 uM after 48 hrs by Hoechst 33258 staining based fluorescence microscopic analysis; format: functional, cell-based
# [24] = Induction of apoptosis in human L02 cells assessed as reactive oxygen species formation at 30 uM measured for 20 hrs by DCFH-DA staining based FLIPR assay; format: cell-based; settings: l02, 20 h
# [25] = system: A549; test: Induction of apoptosis in human A549 cells assessed as early apoptotic cells at 3 uM after 48 hrs by Annexin V-FITC/propidium iodide staining based flow cytrometric analysis (reference value: 0.63%); format: functional
# [26] = system: A549; test: Induction of apoptosis in human A549 cells assessed as early apoptotic cells at 10 uM after 48 hrs by Annexin V-FITC/propidium iodide staining based flow cytrometric analysis (reference value: 0.63%); format: functional
# [27] = system: A549; test: Induction of apoptosis in human A549 cells assessed as early apoptotic cells at 30 uM after 48 hrs by Annexin V/propidium iodide staining based flow cytrometric analysis in absence of 5 mM NAC (reference value: 0.63%); format: functional
# [28] = system: A549; test: Induction of apoptosis in human A549 cells assessed as early apoptotic cells at 30 uM after 48 hrs by Annexin V-FITC/propidium iodide staining based flow cytrometric analysis (reference value: 0.63%); format: functional
# [29] = system: A549; test: Induction of apoptosis in human A549 cells assessed as reactive oxygen species formation after 48 hrs by DCFH-DA staining based fluorescence microscopic analysis; format: functional, cell-based
# [30] = system: A549; test: Induction of apoptosis in human A549 cells assessed as nuclei blebbing at 30 uM after 48 hrs by Hoechst 33258 staining based fluorescence microscopic analysis; format: functional, cell-based
# [31] = system: A549; test: Induction of apoptosis in human A549 cells assessed as early apoptotic cells at 30 uM after 48 hrs by Annexin V/propidium iodide staining based flow cytometric analysis in presence of 3 uM DFO (reference value: 0.63%); format: functional
# [32] = system: A549; test: Induction of apoptosis in human A549 cells assessed as early apoptotic cells at 30 uM after 48 hrs by Annexin V/propidium iodide staining based flow cytometric analysis in the absence of 3 uM DFO (reference value: 0.63%); format: functional
# [33] = system: A549; test: Induction of apoptosis in human A549 cells assessed as cell shrinkage at 10 uM after 48 hrs by Hoechst 33258 staining based fluorescence microscopic analysis; format: functional
# [34] = Induction of apoptosis in human L02 cells assessed as reactive oxygen species formation at 30 uM after 48 hrs by DCFH-DA staining based fluorescence microscopic analysis; format: cell-based; settings: l02, 48 h
# [35] = system: A549; test: Cytotoxicity against human A549 cells assessed as cell viability at 3 to 30 uM after 48 hrs by MTT assay in presence of 3 uM DFO; format: functional, cell-based
# [36] = system: A549; test: Antiproliferative activity against human A549 cells at 0.40 uM after 72 hrs by MTT assay; format: functional, cell-based
# [37] = system: A549; test: Antiproliferative activity against human A549 cells at 0.40 uM after 72 hrs by MTT assay in presence of 0.20 uM 9alpha-DHA; format: functional, cell-based
smiles,measurement,setting,value
COc1cc(/C=C/C(=O)O[C@@H]2O[C@@H]3O[C@@]4(C)CC[C@H]5[C@H](C)[C@H](OC(=O)/C=C/c6cc(OC)c(OC)c(OC)c6)C[C@@H]([C@H]2C)[C@@]35OO4)cc(OC)c1OC,IC50,[1],11.8 µM
same,IC50,[2],58.6 µM
same,IC50,[3],5.33 µM
same,IC50,[4],500 nM
same,Stability,[5],Stable
same,degraded,[6],1%
same,Ratio IC50,[7],117.3
same,IC50,[8],17.2 µM
C[C@H]1[C@@H](O)O[C@@H]2O[C@@]3(C)CC[C@H]4[C@H](C)CC[C@@H]1[C@@]24OO3 [ARTENIMOL],IC50,[1],> 100 µM
same,IC50,[2],146 µM
same,IC50,[3],21.9 µM
same,IC50,[4],80400 nM
same,Stability,[6],Unstable
same,Ratio IC50,[7],1.81
same,IC50,[8],> 100 µM
C[C@@H]1[C@H](O)C[C@H]2[C@@H](C)[C@@H](O)O[C@@H]3O[C@@]4(C)CC[C@@H]1[C@]32OO4,Activity,[9],inactive
same,IC50,[1],> 100 µM
same,IC50,[3],57.8 µM
same,IC50,[4],> 100000 nM
same,Activity,[10],inactive
same,IC50,[8],> 100 µM
C[C@@H]1[C@H](OC(=O)/C=C/c2ccccc2)C[C@H]2[C@@H](C)[C@H](OC(=O)/C=C/c3ccccc3)O[C@@H]3O[C@@]4(C)CC[C@@H]1[C@]32OO4,IC50,[1],12.8 µM
same,IC50,[3],18 µM
same,IC50,[4],4420 nM
same,Stability,[5],Stable
same,degraded,[6],1%
same,IC50,[8],36 µM
COc1ccc(/C=C/C(=O)O[C@@H]2O[C@@H]3O[C@@]4(C)CC[C@H]5[C@H](C)[C@H](OC(=O)/C=C/c6ccc(OC)c(OC)c6OC)C[C@@H]([C@H]2C)[C@@]35OO4)c(OC)c1OC,IC50,[1],19.6 µM
same,IC50,[2],57.9 µM
same,IC50,[3],16.6 µM
same,IC50,[4],1660 nM
same,Ratio IC50,[7],34.88
same,IC50,[8],2.95 µM
O=c1[nH]cc(F)c(=O)[nH]1 [FLUOROURACIL],IC50,[1],11.9 µM
same,IC50,[2],25.9 µM
same,IC50,[3],15.2 µM
same,Ratio IC50,[7],3.83
same,IC50,[8],42.5 µM
COc1ccc(/C=C/C(=O)O[C@@H]2O[C@@H]3O[C@@]4(C)CC[C@H]5[C@H](C)[C@H](OC(=O)/C=C/c6ccc(OC)c(OC)c6)C[C@@H]([C@H]2C)[C@@]35OO4)cc1OC,IC50,[1],4.94 µM
same,Activity,[11],Active
same,Activity,[12],4.71%
same,IC50,[2],80.2 µM
same,Activity,[13],inactive
same,IC50,[3],6.23 µM
same,IC50,[4],200 nM
same,Activity,[14],tde
same,Activity,[15],Active
same,Activity,[16],Dose-dependent effect
same,Activity,[17],Active
same,Activity,[18],Active
same,Activity,[19],inactive
same,Activity,[20],Non-toxic
same,Activity,[10],Active
same,Activity,[21],Active
same,Activity,[22],Active
same,Activity,[23],Active
same,Activity,[24],Non-toxic
same,Activity,[25],4.33%
same,Activity,[26],14.01%
same,Activity,[27],16.88%
same,Activity,[28],16.88%
same,Activity,[29],Dose-dependent effect
same,Activity,[30],Active
same,Ratio IC50,[7],401.25
same,Activity,[31],2.17%
same,IC50,[8],22.7 µM
same,Activity,[32],16.88%
same,Activity,[33],Active
same,Activity,[34],Non-toxic
same,Activity,[35],inactive
COc1cccc(/C=C/C(=O)O[C@@H]2O[C@@H]3O[C@@]4(C)CC[C@H]5[C@H](C)[C@H](OC(=O)/C=C/c6cccc(OC)c6)C[C@@H]([C@H]2C)[C@@]35OO4)c1,IC50,[1],16.2 µM
same,IC50,[3],18.2 µM
same,IC50,[4],800 nM
same,Stability,[5],Stable
same,degraded,[6],1%
same,IC50,[8],43.9 µM
C[C@@H]1[C@H](OC(=O)/C=C/c2ccc(Cl)cc2)C[C@H]2[C@@H](C)[C@H](OC(=O)/C=C/c3ccc(Cl)cc3)O[C@@H]3O[C@@]4(C)CC[C@@H]1[C@]32OO4,IC50,[1],21.3 µM
same,IC50,[3],58.3 µM
same,IC50,[4],1500 nM
same,Stability,[5],Stable
same,degraded,[6],1%
same,IC50,[8],6.76 µM
COc1ccc(/C=C/C(=O)O)cc1OC,Activity,[36],inactive
same,Activity,[37],inactive
COc1ccc(/C=C/C(=O)O[C@@H]2O[C@@H]3O[C@@]4(C)CC[C@H]5[C@H](C)[C@H](O)C[C@@H]([C@H]2C)[C@@]35OO4)cc1OC,IC50,[1],> 100 µM
same,IC50,[3],61 µM
same,IC50,[4],28800 nM
same,IC50,[8],> 100 µM
C[C@@H]1[C@H](OC(=O)/C=C/c2ccc(C(F)(F)F)cc2)C[C@H]2[C@@H](C)[C@H](OC(=O)/C=C/c3ccc(C(F)(F)F)cc3)O[C@@H]3O[C@@]4(C)CC[C@@H]1[C@]32OO4,IC50,[1],39.4 µM
same,IC50,[3],67.7 µM
same,IC50,[4],5080 nM
same,IC50,[8],43.5 µM

# Source: ChEMBL document CHEMBL3751730, “Synthesis and in vitro antitumor evaluation of dihydroartemisinin-cinnamic acid ester derivatives” (Eur J Med Chem, 2016)
